From patent publication US20260199367A1, “PLK1 DEGRADATION INDUCING COMPOUNDS WITH INCREASED RIGIDITY” (UPPTHERA, INC., priority 2022, published 2026)

Tests used:
Format in all cases: cell-based
[1] = test system: NCI-H526 (H526) cell line; assay: Cell viability assay for NCI-H526 cell line; conditions: Homo sapiens, NCI-H526, 120 h, 5 days, EZ-Cytox, 0.46-3000 nM
From the text: (§1) The NCI-H69 (hereafter H69) and NCI-H526 (hereafter H526) cell lines were purchased from Korea Cell Line Bank (KCLB, Seoul, Korea). For cell culture, RPMI 1640 (Gibco, Cat. No. 22400-089; Lot. No. 2537146), FBS (Gibco, Cat. No. 16000-044; Lot. No. 2511328P), Penicillin/Streptomycin (PS) (Gibco, Cat. No. 15140-122; Lot. No. 2441887), 75T cell culture flask (SPL, Cat. No. 71075), 175T cell culture flask (SPL, Cat. No. 71175), 96-well cell culture plate (SPL, Cat. No. 30096), PBS pH 7.4 (Gibco, Cat. No. 10010-023; Lot. No. 2509235), TrypLE™ Express (Gibco, Cat. No. 12605-010; Lot. No. 2323417), Cell Counter (Hematocytometer)(As one, Cat. No. 4-458-01), and 0.4% Trypan Blue Solution (DYNEBIO, Cat. No. CBT3710; Lot. No. 20221111) were used.
(§2) The compounds of Examples were completely dissolved in DMSO (Sigma-Aldrich Cat. No. D2438, Lot. No. RNBL7287) and used in the experiment. 3×10^4 cells were seeded for each well of a 96-well plate (SPL), and the cells were cultured in total volume of 150 μl. Each compound was diluted 3-folds from the highest concentration of 3000 nM to the lowest concentration of 0.46 nM. After treating the compound to each well to make the total volume of 200 μl, it was cultured in a CO2 incubator (Thermo Fisher Science, Cat. No. 4111) for 5 days. Then, after treating EZ-Cytox (DOGEN, Cat.NO. EZ-3000, Lot. No. DLS2308) 20 μl in each well, it was cultured in CO2 incubator for 4 hours. The absorbance of the completely cultured sample was measured by setting the wavelength of a plate reader (BMG Labtech, CLARIOstar Plus) to […], and was measured after shaking for 3 minutes in a plate reader before measurement.
(§3) (A: IC50 is less than 20 nM, B: IC50 is 50 nM or less, C: IC50 is 100 nM or less)

[2] = test system: NCI-H69 (H69) cell line; assay: Cell viability assay for NCI-H69 cell line; conditions: Homo sapiens, NCI-H69, 120 h, 5 days, EZ-Cytox, 0.46-3000 nM
From the text: as §1, §2, §3

[3] = molecular target: T1, PLK1 (Homo sapiens, UniProt P53350); assay: Luciferase assay for PLK1 in HeLa LgBit (PLK1-HiBit KI) cell line; conditions: released after thymidine block, compound 300 nM, luminescence after 9 hours
T1 construct: endogenous in cells; host or cells: HeLa LgBit (PLK1-HiBit KI): HeLa cells stably expressing LgBit, with CRISPR/Cas9 knock-in of HiBit at the endogenous PLK1 locus
Experimental: A HeLa cell line in which the LgBit vector was transfected and expressed stably was prepared. Then, after constructing gRNA and donor to express the HiBit amino acid sequence behind the C-terminal of the PLK1 gene, which was inherent in the cell, it was inserted into the cell together with a vector capable of expressing CRISPR/Cas9. Only the cells in which the insertion was completed and knock-in had progressed were selected, sub-cultured and used.
The compounds of Examples were completely dissolved in DMSO (Sigma-Aldrich Cat. No. D2438, Lot. No. RNBL5438) and used in the experiment.
In the case of HeLa LgBit (Plk1-HiBit KI), the compounds were treated after being released after thymidine block, and the process was as follows. Thymidine (Sigma-Aldrich Cat. No. T9250-5G) was completely dissolved in ddH2O and used in the experiment. For thymidine block, the products were treated with 2 mM of thymidine and then incubated for 24 hours. For release and chemical treatment, the medium was suctioned and washed with 1×PBS. TrypLE™ was added and incubated in 37° C. CO2 incubator (Thermo Fisher Science, Cat. No. 4111) for 5 mins. Cells neutralized by adding complete media were counted through a counter. For each well of a 96-well culture plate (SPL), 3.3×10^4 cells and a total medium volume of 150 μl were seeded and incubated in a CO2 incubator.
Each cell line was incubated in a CO2 incubator for 18 hours, and Endurazine (Promega, Cat. No. N257B) was added to each well to make up 4% of the total volume. After adding compounds of Examples in a 96-well white plate (SPL) to a concentration of 300 nM, the wavelength of the plate reader (BMG Labtech, CLARIOstar Plus) was set to 470-480 nM, and then the luminescence was tracked in real time.

T1 sequence (P53350 whole entry): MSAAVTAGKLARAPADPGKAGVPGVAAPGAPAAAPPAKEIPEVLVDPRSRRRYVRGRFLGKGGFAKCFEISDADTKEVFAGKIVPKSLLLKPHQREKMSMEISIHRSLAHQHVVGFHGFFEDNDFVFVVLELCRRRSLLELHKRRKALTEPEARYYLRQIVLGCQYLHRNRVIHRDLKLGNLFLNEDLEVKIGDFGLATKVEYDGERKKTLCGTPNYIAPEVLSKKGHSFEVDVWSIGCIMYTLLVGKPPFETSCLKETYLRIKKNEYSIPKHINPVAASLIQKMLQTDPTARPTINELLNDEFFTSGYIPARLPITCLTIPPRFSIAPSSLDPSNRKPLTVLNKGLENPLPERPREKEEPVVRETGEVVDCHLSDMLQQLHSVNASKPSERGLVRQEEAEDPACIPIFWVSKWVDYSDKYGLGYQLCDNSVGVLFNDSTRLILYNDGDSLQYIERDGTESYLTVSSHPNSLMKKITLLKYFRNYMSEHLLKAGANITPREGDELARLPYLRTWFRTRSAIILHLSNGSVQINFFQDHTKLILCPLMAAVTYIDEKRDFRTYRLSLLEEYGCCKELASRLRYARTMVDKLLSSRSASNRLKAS

| Value (luminescence value, PLK1-HiBit) [3] | Structure (SMILES) | IC50 [1] | IC50 [2] |
| --- | --- | --- | --- |
| 0.139 | CC[C@@H]1C(=O)N(C)c2cnc(Nc3ccc(C(=O)NC4CCC(N5CCN(CCNc6ccc(C7CCC(=O)NC7=O)cc6)CC5)CC4)cc3OC)nc2N1C1CCCC1 (stereo partly drawn) [Compound 1, 4-(((R)-8-cyclopentyl-7-ethyl-5-methyl-6-oxo-5,6,7,8-tetrahydropteridin-2-yl)amino)-N-((1r,4R)-4-(4-(2-((4-(2,6-dioxopiperidin-3-yl)phenyl)amino)ethyl)piperazin-1-yl)cyclohexyl)-3-methoxybenzamide] | < 0.02 µM | < 0.02 µM |
| 0.129 | CC[C@@H]1C(=O)N(C)c2cnc(Nc3ccc(C(=O)NC4CCC(N5CCC(CNc6ccc(C7CCC(=O)NC7=O)cc6)CC5)CC4)cc3OC)nc2N1C1CCCC1 (stereo partly drawn) [Compound 2, 4-(((R)-8-cyclopentyl-7-ethyl-5-methyl-6-oxo-5,6,7,8-tetrahydropteridin-2-yl)amino)-N-((1r,4R)-4-(4-(((4-(2,6-dioxopiperidin-3-yl)phenyl)amino)methyl)piperidin-1-yl)cyclohexyl)-3-methoxybenzamide] | < 0.02 µM | < 0.02 µM |
| 0.253 | CC[C@@H]1C(=O)N(C)c2cnc(Nc3ccc(C(=O)NC4CCC(N5CCN(CCCc6ccc(NC7CCC(=O)NC7=O)cc6)CC5)CC4)cc3OC)nc2N1C1CCCC1 (stereo partly drawn) [Compound 3, 4-(((R)-8-cyclopentyl-7-ethyl-5-methyl-6-oxo-5,6,7,8-tetrahydropteridin-2-yl)amino)-N-((1r,4R)-4-(4-(3-(4-((2,6-dioxopiperidin-3-yl)amino)phenyl)propyl)piperazin-1-yl)cyclohexyl)-3-methoxybenzamide] | < 0.02 µM | < 0.02 µM |
| 0.157 | CC[C@@H]1C(=O)N(C)c2cnc(Nc3ccc(C(=O)NC4CCC(N5CCN(CCc6ccc(NC7CCC(=O)NC7=O)cc6)CC5)CC4)cc3OC)nc2N1C1CCCC1 (stereo partly drawn) [Compound 4, 4-(((R)-8-cyclopentyl-7-ethyl-5-methyl-6-oxo-5,6,7,8-tetrahydropteridin-2-yl)amino)-N-((1r,4R)-4-(4-(4-((2,6-dioxopiperidin-3-yl)amino)phenethyl)piperazin-1-yl)cyclohexyl)-3-methoxybenzamide] | < 0.02 µM | < 0.02 µM |
| 0.376 | CC[C@@H]1C(=O)N(C)c2cnc(Nc3ccc(C(=O)NC4CCC(N5CCN(CCNc6cccc7c6CN(C6CCC(=O)NC6=O)C7=O)CC5)CC4)cc3OC)nc2N1C1CCCC1 (stereo partly drawn) [Compound 5, 4-(((R)-8-cyclopentyl-7-ethyl-5-methyl-6-oxo-5,6,7,8-tetrahydropteridin-2-yl)amino)-N-((1r,4R)-4-(4-(2-((2-(2,6-dioxopiperidin-3-yl)-1-oxoisoindolin-4-yl)amino)ethyl)piperazin-1-yl)cyclohexyl)-3-methoxybenzamide] | < 0.02 µM | < 0.02 µM |
| 0.286 | CC[C@@H]1C(=O)N(C)c2cnc(Nc3ccc(C(=O)NC4CCC(N5CCC(CNc6cccc7c6CN(C6CCC(=O)NC6=O)C7=O)CC5)CC4)cc3OC)nc2N1C1CCCC1 (stereo partly drawn) [Compound 6, 4-(((R)-8-cyclopentyl-7-ethyl-5-methyl-6-oxo-5,6,7,8-tetrahydropteridin-2-yl)amino)-N-((1r,4R)-4-(4-(((2-(2,6-dioxopiperidin-3-yl)-1-oxoisoindolin-4-yl)amino)methyl)piperidin-1-yl)cyclohexyl)-3-methoxybenzamide] | < 0.02 µM | ≤ 0.05 µM |
| 0.214 | CC[C@@H]1C(=O)N(C)c2cnc(Nc3ccc(C(=O)NC4CCC(N5CCC(CNCc6ccc(C7CCC(=O)NC7=O)cc6)CC5)CC4)cc3OC)nc2N1C1CCCC1 (stereo partly drawn) [Compound 7, 4-(((R)-8-cyclopentyl-7-ethyl-5-methyl-6-oxo-5,6,7,8-tetrahydropteridin-2-yl)amino)-N-((1r,4R)-4-(4-(((4-(2,6-dioxopiperidin-3-yl)benzyl)amino)methyl)piperidin-1-yl)cyclohexyl)-3-methoxybenzamide] | < 0.02 µM | ≤ 0.05 µM |
| 0.279 | CC[C@@H]1C(=O)N(C)c2cnc(Nc3ccc(C(=O)NC4CCC(N5CCC(NCc6ccc(C7CCC(=O)NC7=O)cc6)CC5)CC4)cc3OC)nc2N1C1CCCC1 (stereo partly drawn) [Compound 8, 4-(((R)-8-cyclopentyl-7-ethyl-5-methyl-6-oxo-5,6,7,8-tetrahydropteridin-2-yl)amino)-N-((1r,4R)-4-(4-((4-(2,6-dioxopiperidin-3-yl)benzyl)amino)piperidin-1-yl)cyclohexyl)-3-methoxybenzamide] | < 0.02 µM | < 0.02 µM |
| 0.377 | CC[C@@H]1C(=O)N(C)c2cnc(Nc3ccc(C(=O)NC4CCN(C(=O)C(N)CN5CCN(c6cccc7c6C(=O)N(C6CCC(=O)NC6=O)C7=O)CC5)CC4)cc3OC)nc2N1C1CCCC1 (stereo partly drawn) [Compound 9, N-(1-(2-amino-3-(4-(2-(2,6-dioxopiperidin-3-yl)-1,3-dioxoisoindolin-4-yl)piperazin-1-yl)propanoyl)piperidin-4-yl)-4-(((R)-8-cyclopentyl-7-ethyl-5-methyl-6-oxo-5,6,7,8-tetrahydropteridin-2-yl)amino)-3-methoxybenzamide] | < 0.02 µM | ≤ 0.1 µM |
| 0.282 | CC[C@@H]1C(=O)N(C)c2cnc(Nc3ccc(C(=O)NC4CCN(C(=O)C(N)CN5CCN(c6ccc(C7CCC(=O)NC7=O)cc6)CC5)CC4)cc3OC(F)(F)F)nc2N1C1CCCC1 (stereo partly drawn) [Compound 10, N-(1-(2-amino-3-(4-(4-(2,6-dioxopiperidin-3-yl)phenyl)piperazin-1-yl)propanoyl)piperidin-4-yl)-4-(((R)-8-cyclopentyl-7-ethyl-5-methyl-6-oxo-5,6,7,8-tetrahydropteridin-2-yl)amino)-3-(trifluoromethoxy)benzamide] | ≤ 0.05 µM | ≤ 0.1 µM |
| 0.234 | CC[C@@H]1C(=O)N(C)c2cnc(Nc3ccc(C(=O)NC4CCN(C(=O)C(N)CN5CCN(c6ccc(C7CCC(=O)NC7=O)cc6)CC5)CC4)cc3OC)nc2N1C1CCCC1 (stereo partly drawn) [Compound 11, N-(1-(2-amino-3-(4-(4-(2,6-dioxopiperidin-3-yl)phenyl)piperazin-1-yl)propanoyl)piperidin-4-yl)-4-(((R)-8-cyclopentyl-7-ethyl-5-methyl-6-oxo-5,6,7,8-tetrahydropteridin-2-yl)amino)-3-methoxybenzamide] | < 0.02 µM | ≤ 0.05 µM |
| 0.372 | CC[C@@H]1C(=O)N(C)c2cnc(Nc3ccc(C(=O)NC4CCC(N5CCC(NCc6cccc7c6CN(C6CCC(=O)NC6=O)C7=O)CC5)CC4)cc3OC)nc2N1C1CCCC1 (stereo partly drawn) [Compound 12, 4-(((R)-8-cyclopentyl-7-ethyl-5-methyl-6-oxo-5,6,7,8-tetrahydropteridin-2-yl)amino)-N-((1r,4R)-4-(4-(((2-(2,6-dioxopiperidin-3-yl)-1-oxoisoindolin-4-yl)methyl)amino)piperidin-1-yl)cyclohexyl)-3-methoxybenzamide] | ≤ 0.05 µM | ≤ 0.1 µM |
